From ChEMBL document CHEMBL3991601, “The target landscape of clinical kinase drugs” (Science, 2017)
Calls of active or inactive are those of the source. Rule as the data show it, for most assays here: actives have a measured Kd and inactives only a lower limit.

Columns and labels:
[1] = target: T1, Probable ATP-dependent RNA helicase DDX6 (Homo sapiens, UniProt P26196)
T1 sequence (P26196 whole entry): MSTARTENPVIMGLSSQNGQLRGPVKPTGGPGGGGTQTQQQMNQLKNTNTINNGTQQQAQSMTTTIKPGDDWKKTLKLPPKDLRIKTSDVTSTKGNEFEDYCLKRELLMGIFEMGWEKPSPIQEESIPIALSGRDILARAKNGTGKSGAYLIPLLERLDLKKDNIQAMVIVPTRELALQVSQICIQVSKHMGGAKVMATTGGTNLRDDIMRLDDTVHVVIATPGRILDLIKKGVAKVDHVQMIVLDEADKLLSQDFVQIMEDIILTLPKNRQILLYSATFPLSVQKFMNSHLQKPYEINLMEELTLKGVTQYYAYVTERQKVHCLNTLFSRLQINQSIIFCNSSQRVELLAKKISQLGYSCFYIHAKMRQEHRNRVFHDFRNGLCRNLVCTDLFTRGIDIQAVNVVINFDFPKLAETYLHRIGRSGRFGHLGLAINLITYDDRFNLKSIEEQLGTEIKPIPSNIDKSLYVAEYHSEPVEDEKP

[2] = target: T2, Serine/threonine-protein kinase Nek1 (Homo sapiens, UniProt Q96PY6)
T2 sequence (Q96PY6 whole entry): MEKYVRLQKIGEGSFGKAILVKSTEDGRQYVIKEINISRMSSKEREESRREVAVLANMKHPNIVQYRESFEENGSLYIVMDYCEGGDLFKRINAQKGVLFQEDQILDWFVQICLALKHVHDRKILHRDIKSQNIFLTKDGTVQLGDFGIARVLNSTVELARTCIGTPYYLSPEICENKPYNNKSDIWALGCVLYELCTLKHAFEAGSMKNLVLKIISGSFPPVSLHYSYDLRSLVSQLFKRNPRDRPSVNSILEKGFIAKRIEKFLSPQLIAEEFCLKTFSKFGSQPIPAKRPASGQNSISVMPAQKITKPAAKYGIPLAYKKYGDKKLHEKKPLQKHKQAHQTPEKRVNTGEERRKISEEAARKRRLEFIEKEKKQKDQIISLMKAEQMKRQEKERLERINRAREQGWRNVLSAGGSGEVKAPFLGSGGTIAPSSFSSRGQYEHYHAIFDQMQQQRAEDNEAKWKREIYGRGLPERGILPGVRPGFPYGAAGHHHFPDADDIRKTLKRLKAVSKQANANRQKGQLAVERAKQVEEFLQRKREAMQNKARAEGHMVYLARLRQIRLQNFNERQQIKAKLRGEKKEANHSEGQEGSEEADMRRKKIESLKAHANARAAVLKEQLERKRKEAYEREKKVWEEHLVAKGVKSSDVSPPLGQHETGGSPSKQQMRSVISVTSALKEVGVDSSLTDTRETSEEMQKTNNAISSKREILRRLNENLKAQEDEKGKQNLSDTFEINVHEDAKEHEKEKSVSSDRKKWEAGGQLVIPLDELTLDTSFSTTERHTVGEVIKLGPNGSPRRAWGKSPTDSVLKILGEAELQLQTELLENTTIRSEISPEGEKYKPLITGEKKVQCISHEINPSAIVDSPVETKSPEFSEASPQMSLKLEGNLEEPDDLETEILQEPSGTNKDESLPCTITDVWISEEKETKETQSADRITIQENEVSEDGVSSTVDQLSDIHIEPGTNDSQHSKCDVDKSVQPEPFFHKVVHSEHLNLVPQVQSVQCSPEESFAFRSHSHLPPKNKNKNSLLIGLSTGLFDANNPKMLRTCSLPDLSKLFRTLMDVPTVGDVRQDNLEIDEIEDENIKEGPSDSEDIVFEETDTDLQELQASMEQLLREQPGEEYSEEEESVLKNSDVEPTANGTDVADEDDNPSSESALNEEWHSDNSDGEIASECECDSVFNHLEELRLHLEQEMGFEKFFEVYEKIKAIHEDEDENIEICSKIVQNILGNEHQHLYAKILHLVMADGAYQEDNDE

[3] = target: T3, Phosphatidylinositol 5-phosphate 4-kinase type-2 gamma (Homo sapiens, UniProt Q8TBX8)
T3 sequence (Q8TBX8 whole entry): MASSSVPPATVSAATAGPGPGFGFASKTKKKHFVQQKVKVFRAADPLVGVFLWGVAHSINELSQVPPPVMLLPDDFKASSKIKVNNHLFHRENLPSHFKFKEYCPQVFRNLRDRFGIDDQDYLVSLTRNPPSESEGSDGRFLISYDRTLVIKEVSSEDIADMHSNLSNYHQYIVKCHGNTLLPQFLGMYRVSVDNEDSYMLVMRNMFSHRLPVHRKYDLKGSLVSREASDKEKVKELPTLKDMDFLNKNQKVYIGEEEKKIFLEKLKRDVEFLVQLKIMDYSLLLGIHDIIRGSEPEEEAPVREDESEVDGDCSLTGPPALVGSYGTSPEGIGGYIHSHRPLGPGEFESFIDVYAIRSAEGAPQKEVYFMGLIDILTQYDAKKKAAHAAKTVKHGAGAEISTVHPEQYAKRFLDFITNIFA

[4] = target: 5'-AMP-activated protein kinase catalytic subunit alpha-1 (Homo sapiens, UniProt Q13131)
Focal adhesion kinase 1 = Focal adhesion kinase 1 (Homo sapiens, UniProt Q05397)
Also: in the data inactive means no Kd found up to 30 µM.

5'-AMP-activated protein kinase catalytic subunit alpha-1, sequence (Q13131 whole entry): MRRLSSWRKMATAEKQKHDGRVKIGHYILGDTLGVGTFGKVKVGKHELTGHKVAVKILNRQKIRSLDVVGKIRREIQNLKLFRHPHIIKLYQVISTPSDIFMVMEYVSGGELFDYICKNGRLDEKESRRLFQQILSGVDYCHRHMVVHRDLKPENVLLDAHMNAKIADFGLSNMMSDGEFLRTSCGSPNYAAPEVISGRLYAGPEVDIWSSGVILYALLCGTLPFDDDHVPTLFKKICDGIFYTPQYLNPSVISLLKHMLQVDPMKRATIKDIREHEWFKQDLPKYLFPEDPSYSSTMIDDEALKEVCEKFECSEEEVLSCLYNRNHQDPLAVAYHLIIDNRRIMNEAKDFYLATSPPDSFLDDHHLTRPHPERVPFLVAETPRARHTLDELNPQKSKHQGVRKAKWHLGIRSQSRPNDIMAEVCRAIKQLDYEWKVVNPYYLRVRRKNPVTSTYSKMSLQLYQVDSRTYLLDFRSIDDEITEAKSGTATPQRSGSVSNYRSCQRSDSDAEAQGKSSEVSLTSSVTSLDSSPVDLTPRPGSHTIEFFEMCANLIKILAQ
Focal adhesion kinase 1, sequence (Q05397 whole entry): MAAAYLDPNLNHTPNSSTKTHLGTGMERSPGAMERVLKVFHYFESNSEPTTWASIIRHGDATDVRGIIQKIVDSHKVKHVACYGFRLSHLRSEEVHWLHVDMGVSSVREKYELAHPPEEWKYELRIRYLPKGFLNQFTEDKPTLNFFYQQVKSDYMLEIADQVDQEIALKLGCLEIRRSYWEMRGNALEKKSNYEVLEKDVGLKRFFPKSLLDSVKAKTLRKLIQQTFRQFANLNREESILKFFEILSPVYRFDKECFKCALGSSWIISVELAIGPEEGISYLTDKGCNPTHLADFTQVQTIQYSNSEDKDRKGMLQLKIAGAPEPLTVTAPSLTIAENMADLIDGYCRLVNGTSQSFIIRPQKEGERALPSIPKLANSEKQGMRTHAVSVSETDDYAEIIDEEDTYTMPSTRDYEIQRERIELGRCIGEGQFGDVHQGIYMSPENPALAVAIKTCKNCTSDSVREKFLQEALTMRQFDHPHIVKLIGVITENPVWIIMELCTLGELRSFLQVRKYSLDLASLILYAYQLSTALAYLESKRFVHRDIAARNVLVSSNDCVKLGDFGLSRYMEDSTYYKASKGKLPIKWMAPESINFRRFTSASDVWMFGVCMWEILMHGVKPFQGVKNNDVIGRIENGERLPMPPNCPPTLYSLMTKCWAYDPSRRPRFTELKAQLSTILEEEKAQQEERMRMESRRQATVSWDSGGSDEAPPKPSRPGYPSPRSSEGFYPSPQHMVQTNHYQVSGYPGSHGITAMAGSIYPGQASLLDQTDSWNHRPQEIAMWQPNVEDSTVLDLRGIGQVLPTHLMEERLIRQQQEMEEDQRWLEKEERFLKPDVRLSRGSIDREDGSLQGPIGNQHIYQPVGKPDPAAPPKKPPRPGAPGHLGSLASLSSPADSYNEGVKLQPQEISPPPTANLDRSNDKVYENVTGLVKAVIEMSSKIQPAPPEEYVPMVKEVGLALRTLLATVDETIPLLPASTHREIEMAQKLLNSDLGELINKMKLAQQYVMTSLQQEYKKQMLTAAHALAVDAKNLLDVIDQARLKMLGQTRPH

SMILES | Kd [1] | Kd [2] | Kd [3] | Kd [4] | Kd (Focal adhesion kinase 1)
Cn1cc(-c2ccc(F)c(C(F)(F)F)c2)nc1C1CCN(c2ncnc3[nH]ncc23)CC1 [LY-2584702] | > 30 µM (inactive) | > 30 µM (inactive) | > 30 µM (inactive) | > 30 µM (inactive) | > 30 µM (inactive)
CC[C@H](Nc1ncnc2[nH]cnc12)c1nc2cccc(F)c2c(=O)n1-c1ccccc1 [IDELALISIB] | > 30 µM (inactive) | > 30 µM (inactive) | > 30 µM (inactive) | > 30 µM (inactive) | > 30 µM (inactive)
O=C1NC(=O)/C(=C/c2ccc3nccc(-c4ccncc4)c3c2)S1 [GSK-1059615] | > 30 µM (inactive) | > 30 µM (inactive) | 0.331 µM | > 30 µM (inactive) | > 30 µM (inactive)
CNC(=O)c1cc(Oc2ccc(NC(=O)Nc3ccc(Cl)c(C(F)(F)F)c3)c(F)c2)ccn1 [REGORAFENIB] | > 30 µM (inactive) | > 30 µM (inactive) | > 30 µM (inactive) | > 30 µM (inactive) | > 30 µM (inactive)
CN1N=C(N)c2cn([C@@H]3O[C@H](COP(=O)(O)O)[C@@H](O)[C@H]3O)c3ncnc1c23 [TRICIRIBINE PHOSPHATE] | > 30 µM (inactive) | > 30 µM (inactive) | > 30 µM (inactive) | > 30 µM (inactive) | > 30 µM (inactive)
CN1CCC(CNc2ccc3ncc(-c4cccc(OC(F)(F)F)c4)n3n2)CC1 [SGI-1776] | > 30 µM (inactive) | > 30 µM (inactive) | > 30 µM (inactive) | > 30 µM (inactive) | > 30 µM (inactive)
CC(C)Nc1cc(-c2c[nH]c(C(=O)N[C@H](CO)c3cccc(Cl)c3)c2)c(Cl)cn1 [ULIXERTINIB] | > 30 µM (inactive) | > 30 µM (inactive) | > 30 µM (inactive) | > 30 µM (inactive) | > 30 µM (inactive)
CC[C@@H]1C(=O)N(C)c2cnc(Nc3ccc(C(=O)N[C@H]4CC[C@H](N5CCN(CC6CC6)CC5)CC4)cc3OC)nc2N1C(C)C [VOLASERTIB] | > 30 µM (inactive) | > 30 µM (inactive) | > 30 µM (inactive) | > 30 µM (inactive) | 0.601 µM (active)
CN1CC[C@@H](c2c(O)cc(O)c3c(=O)cc(-c4ccccc4Cl)oc23)[C@@H]1CO | > 30 µM (inactive) | > 30 µM (inactive) | > 30 µM (inactive) | > 30 µM (inactive) | > 30 µM (inactive)
Cc1ccc(S(=O)(=O)Nc2nc3ccccc3nc2Nc2ccc3nsnc3c2)cc1 | > 30 µM (inactive) | > 30 µM (inactive) | > 30 µM (inactive) | > 30 µM (inactive) | > 30 µM (inactive)
COc1cc2nccc(Oc3ccc(NC(=O)NC4CC4)c(Cl)c3)c2cc1C(N)=O [LENVATINIB] | > 30 µM (inactive) | > 30 µM (inactive) | > 30 µM (inactive) | > 30 µM (inactive) | > 30 µM (inactive)
COC(=O)N[C@@H](C)CNc1nccc(-c2cn(C(C)C)nc2-c2cc(Cl)cc(NS(C)(=O)=O)c2F)n1 [ENCORAFENIB] | > 30 µM (inactive) | > 30 µM (inactive) | > 30 µM (inactive) | > 30 µM (inactive) | > 30 µM (inactive)
COCCNCc1ccc(-c2cc3nccc(Oc4ccc(NC(=S)NC(=O)Cc5ccc(F)cc5)cc4F)c3s2)nc1 [GLESATINIB] | > 30 µM (inactive) | > 30 µM (inactive) | > 30 µM (inactive) | > 30 µM (inactive) | > 30 µM (inactive)
CCS(=O)(=O)N1CC(CC#N)(n2cc(-c3ncnc4[nH]ccc34)cn2)C1 [BARICITINIB] | > 30 µM (inactive) | > 30 µM (inactive) | > 30 µM (inactive) | > 30 µM (inactive) | > 30 µM (inactive)
Cc1c(F)cc(C(=O)NC2CC2)cc1-c1ccc(C(=O)NCC(C)(C)C)cn1 [LOSMAPIMOD] | > 30 µM (inactive) | > 30 µM (inactive) | > 30 µM (inactive) | > 30 µM (inactive) | > 30 µM (inactive)
